PubChem BioAssay (NCI)
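Method: 48-hour compound exposure of cells in 96-well plates, five concentrations, linear interpolation of endpoints. TGI is the concentration that stops growth completely.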

Columns and labels:
Assay in all cases: inhibition of tumour cell growth, NCI panel, 48 h
NCI-H226 lung = tested on: NCI-H226 lung
EKVX NSCLC = tested on: EKVX NSCLC
A498 renal = tested on: A498 renal
UACC-62 melanoma = tested on: UACC-62 melanoma
UO-31 renal = tested on: UO-31 renal
A549 NSCLC = tested on: A549 NSCLC
OVCAR-3 ovarian = tested on: OVCAR-3 ovarian
MOLT-4 leukemia = tested on: MOLT-4 leukemia
SNB-19 CNS = tested on: SNB-19 CNS
XF 498 CNS = tested on: XF 498 CNS
SK-OV-3 ovarian = tested on: SK-OV-3 ovarian
HL-60(TB) leukemia = tested on: HL-60(TB) leukemia
HCT-15 colon = tested on: HCT-15 colon
MALME-3M melanoma = tested on: MALME-3M melanoma
U251 CNS = tested on: U251 CNS
KM20L2 colon = tested on: KM20L2 colon
LOX IMVI melanoma = tested on: LOX IMVI melanoma
M19-MEL melanoma = tested on: M19-MEL melanoma
DMS 114 small cell lung = tested on: DMS 114 small cell lung
786-0 renal = tested on: 786-0 renal
SF-295 CNS = tested on: SF-295 CNS
HCC-2998 colon = tested on: HCC-2998 colon
DMS 273 small cell lung = tested on: DMS 273 small cell lung
RPMI-8226 leukemia = tested on: RPMI-8226 leukemia
SK-MEL-2 melanoma = tested on: SK-MEL-2 melanoma
DLD-1 colon = tested on: DLD-1 colon
CCRF-CEM leukemia = tested on: CCRF-CEM leukemia
SF-539 CNS = tested on: SF-539 CNS
TK-10 renal = tested on: TK-10 renal
HOP-92 NSCLC = tested on: HOP-92 NSCLC
SK-MEL-5 melanoma = tested on: SK-MEL-5 melanoma
HOP-62 NSCLC = tested on: HOP-62 NSCLC
K-562 leukemia = tested on: K-562 leukemia
RXF 393 renal = tested on: RXF 393 renal
M14 melanoma = tested on: M14 melanoma
IGROV1 ovarian = tested on: IGROV1 ovarian
SNB-75 CNS = tested on: SNB-75 CNS
HCT-116 colon = tested on: HCT-116 colon
UACC-257 melanoma = tested on: UACC-257 melanoma
LXFL 529 NSCLC = tested on: LXFL 529 NSCLC
HT29 colon = tested on: HT29 colon
OVCAR-5 ovarian = tested on: OVCAR-5 ovarian
COLO 205 colon = tested on: COLO 205 colon
SK-MEL-28 melanoma = tested on: SK-MEL-28 melanoma
CAKI-1 renal = tested on: CAKI-1 renal
ACHN renal = tested on: ACHN renal
NCI-H522 lung = tested on: NCI-H522 lung
NCI-H23 lung = tested on: NCI-H23 lung
SW-620 colon = tested on: SW-620 colon
HOP-18 NSCLC = tested on: HOP-18 NSCLC
KM12 colon = tested on: KM12 colon
SF-268 CNS = tested on: SF-268 CNS
OVCAR-4 ovarian = tested on: OVCAR-4 ovarian
SNB-78 CNS = tested on: SNB-78 CNS
OVCAR-8 ovarian = tested on: OVCAR-8 ovarian
NCI-H460 lung = tested on: NCI-H460 lung
SR leukemia = tested on: SR leukemia
SN12C renal = tested on: SN12C renal

Measured: TGI

Cc1c2nc3ccccc3sc-2cc(=O)c1C
> 89.2 µM: COLO 205 colon
> 90.6 µM: OVCAR-3 ovarian
29.7 µM: M19-MEL melanoma
> 85.5 µM: HL-60(TB) leukemia
70.3 µM: UACC-62 melanoma
> 46.8 µM: UACC-257 melanoma
> 100 µM: NCI-H226 lung | EKVX NSCLC | A498 renal | UO-31 renal | A549 NSCLC | MOLT-4 leukemia | SNB-19 CNS | XF 498 CNS | SK-OV-3 ovarian | HCT-15 colon | MALME-3M melanoma | U251 CNS | KM20L2 colon | LOX IMVI melanoma | 786-0 renal | SF-295 CNS | HCC-2998 colon | DMS 273 small cell lung | RPMI-8226 leukemia | DLD-1 colon | CCRF-CEM leukemia | SF-539 CNS | TK-10 renal | HOP-92 NSCLC | SK-MEL-5 melanoma | HOP-62 NSCLC | RXF 393 renal | M14 melanoma | IGROV1 ovarian | SNB-75 CNS | HCT-116 colon | LXFL 529 NSCLC | HT29 colon | OVCAR-5 ovarian | SK-MEL-28 melanoma | CAKI-1 renal | ACHN renal | NCI-H522 lung | NCI-H23 lung | SW-620 colon | HOP-18 NSCLC | KM12 colon | SF-268 CNS | OVCAR-4 ovarian | SNB-78 CNS | OVCAR-8 ovarian | NCI-H460 lung
> 25.2 µM: SK-MEL-2 melanoma
> 91.6 µM: K-562 leukemia
79.7 µM: DMS 114 small cell lung

CCOC(=O)C1(C(=O)OCC)OC(=O)NC2=C1CCCC2
> 100 µM: EKVX NSCLC | A498 renal | UO-31 renal | A549 NSCLC | OVCAR-3 ovarian | MOLT-4 leukemia | SNB-19 CNS | XF 498 CNS | SK-OV-3 ovarian | HL-60(TB) leukemia | MALME-3M melanoma | U251 CNS | KM20L2 colon | LOX IMVI melanoma | M19-MEL melanoma | DMS 114 small cell lung | 786-0 renal | SF-295 CNS | HCC-2998 colon | DMS 273 small cell lung | RPMI-8226 leukemia | SK-MEL-2 melanoma | DLD-1 colon | CCRF-CEM leukemia | SF-539 CNS | TK-10 renal | HOP-92 NSCLC | SK-MEL-5 melanoma | HOP-62 NSCLC | K-562 leukemia | RXF 393 renal | IGROV1 ovarian | SNB-75 CNS | HCT-116 colon | UACC-257 melanoma | LXFL 529 NSCLC | HT29 colon | OVCAR-5 ovarian | COLO 205 colon | SK-MEL-28 melanoma | ACHN renal | NCI-H522 lung | NCI-H23 lung | SW-620 colon | HOP-18 NSCLC | KM12 colon | SF-268 CNS | SNB-78 CNS | OVCAR-8 ovarian | NCI-H460 lung

CN1C(=O)N(C)C(N2CCCC2)c2c1nc1ccccn1c2=O (configuration not stated)
> 100 µM: NCI-H226 lung | EKVX NSCLC | A498 renal | UACC-62 melanoma | UO-31 renal | A549 NSCLC | SR leukemia | OVCAR-3 ovarian | MOLT-4 leukemia | SNB-19 CNS | XF 498 CNS | SK-OV-3 ovarian | HL-60(TB) leukemia | HCT-15 colon | MALME-3M melanoma | U251 CNS | KM20L2 colon | LOX IMVI melanoma | M19-MEL melanoma | DMS 114 small cell lung | 786-0 renal | SF-295 CNS | HCC-2998 colon | DMS 273 small cell lung | RPMI-8226 leukemia | SK-MEL-2 melanoma | DLD-1 colon | CCRF-CEM leukemia | SF-539 CNS | TK-10 renal | HOP-92 NSCLC | HOP-62 NSCLC | K-562 leukemia | RXF 393 renal | M14 melanoma | IGROV1 ovarian | SNB-75 CNS | HCT-116 colon | UACC-257 melanoma | LXFL 529 NSCLC | HT29 colon | COLO 205 colon | SK-MEL-28 melanoma | ACHN renal | NCI-H522 lung | NCI-H23 lung | SW-620 colon | HOP-18 NSCLC | SN12C renal | KM12 colon | SF-268 CNS | OVCAR-4 ovarian | SNB-78 CNS | OVCAR-8 ovarian | NCI-H460 lung

COc1cc2c(cc1OC)C(Cc1ccc(Oc3cc(CC4c5cc(OC)c(OC)cc5CCN4C)ccc3O)cc1)N(C)CC2 (configuration not stated)
28.1 µM: HCC-2998 colon
47.1 µM: SF-295 CNS
73.3 µM: CAKI-1 renal
25 µM: NCI-H522 lung
28.5 µM: LXFL 529 NSCLC
29.3 µM: K-562 leukemia
29.4 µM: RXF 393 renal
28.7 µM: M14 melanoma | SF-268 CNS
41.5 µM: MOLT-4 leukemia
54.7 µM: OVCAR-4 ovarian
> 100 µM: EKVX NSCLC | A549 NSCLC | SNB-19 CNS | SK-OV-3 ovarian | TK-10 renal | OVCAR-5 ovarian | NCI-H23 lung | SN12C renal | SNB-78 CNS | OVCAR-8 ovarian
76.6 µM: HOP-18 NSCLC
50.1 µM: OVCAR-3 ovarian
30.6 µM: SF-539 CNS
32 µM: HCT-15 colon | UACC-257 melanoma
47.8 µM: DMS 273 small cell lung
30.2 µM: SK-MEL-28 melanoma
38.2 µM: U251 CNS
28.3 µM: UO-31 renal
34.3 µM: KM20L2 colon
58.4 µM: CCRF-CEM leukemia
51.4 µM: RPMI-8226 leukemia
57.5 µM: NCI-H226 lung
39 µM: M19-MEL melanoma
32.6 µM: LOX IMVI melanoma
35.5 µM: SW-620 colon
80.4 µM: NCI-H460 lung
35.2 µM: ACHN renal
34.7 µM: MALME-3M melanoma
56.5 µM: IGROV1 ovarian
34.2 µM: XF 498 CNS
70.7 µM: KM12 colon
30.9 µM: DMS 114 small cell lung
23.8 µM: COLO 205 colon
31 µM: SK-MEL-2 melanoma
38.7 µM: DLD-1 colon
31.6 µM: SNB-75 CNS
57.4 µM: HOP-62 NSCLC
29.1 µM: SK-MEL-5 melanoma
27.1 µM: 786-0 renal
22 µM: HCT-116 colon
32.4 µM: UACC-62 melanoma
30.4 µM: HL-60(TB) leukemia
55.9 µM: HOP-92 NSCLC
28.9 µM: HT29 colon
24.1 µM: SR leukemia
49.1 µM: A498 renal

COCCCCCC(=O)CP(=O)(OC)OC
> 100 µM: NCI-H226 lung | EKVX NSCLC | A498 renal | UACC-62 melanoma | UO-31 renal | A549 NSCLC | SR leukemia | OVCAR-3 ovarian | MOLT-4 leukemia | SNB-19 CNS | XF 498 CNS | SK-OV-3 ovarian | HL-60(TB) leukemia | HCT-15 colon | MALME-3M melanoma | U251 CNS | KM20L2 colon | LOX IMVI melanoma | M19-MEL melanoma | DMS 114 small cell lung | 786-0 renal | SF-295 CNS | HCC-2998 colon | DMS 273 small cell lung | RPMI-8226 leukemia | SK-MEL-2 melanoma | DLD-1 colon | CCRF-CEM leukemia | SF-539 CNS | TK-10 renal | HOP-92 NSCLC | SK-MEL-5 melanoma | HOP-62 NSCLC | K-562 leukemia | RXF 393 renal | M14 melanoma | IGROV1 ovarian | SNB-75 CNS | HCT-116 colon | UACC-257 melanoma | LXFL 529 NSCLC | HT29 colon | OVCAR-5 ovarian | COLO 205 colon | SK-MEL-28 melanoma | CAKI-1 renal | ACHN renal | NCI-H522 lung | NCI-H23 lung | SW-620 colon | HOP-18 NSCLC | SN12C renal | KM12 colon | SF-268 CNS | OVCAR-4 ovarian | SNB-78 CNS | OVCAR-8 ovarian | NCI-H460 lung
